According to the supplement of paper PMC10883282:

Experiments:
Assay in all cases: relative viability vs DMSO control (72 h) (fraction); higher = more viable cells
SW872 = tested on: SW872
Procedure, shortened: (§1)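 Serially diluted compound, 2.5 µl from source plates spanning 10 mM to 0.0002 mM, was added 24 h after sarcoma cell lines were seeded in 384-well plates at densities targeting 80–90% confluence. Plates then sat 72 h at 37 °C, 5% CO2, with 0.1% DMSO vehicle and a 5 µM positive control. Relative viability came from ATPLite as percent growth, averaged over up to triplicate wells, and was rescaled with 1 as full and 0 as none.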

SW684 = tested on: SW684
Procedure, shortened: as §1

RD-ES = tested on: RD-ES
Procedure, shortened: as §1

HS729 = tested on: HS729
Procedure, shortened: as §1

VA-ES-BJ = tested on: VA-ES-BJ
Procedure, shortened: as §1

KHOS-NP = tested on: KHOS-NP
Procedure, shortened: as §1

G401 = tested on: G401
Procedure, shortened: as §1

SK-ES-1 = tested on: SK-ES-1
Procedure, shortened: as §1

HT1080 = tested on: HT1080
Procedure, shortened: as §1

A204 = tested on: A204
Procedure, shortened: as §1

SW982 = tested on: SW982
Procedure, shortened: as §1

SK-LMS-1 = tested on: SK-LMS-1
Procedure, shortened: as §1

O=S(=O)(c1cccc2cnccc12)N1CCCNCC1 [Fasudil]
relative viability
Conditions | 0.00051 µM | 0.00152 µM | 0.00457 µM | 0.01372 µM | 0.04115 µM | 0.1235 µM | 0.3704 µM | 1.111 µM | 3.333 µM | 10 µM
A204 | 0.98 | 1.03 | 1.02 | 1.02 | 1.01 | 0.987 | 1.01 | 0.991 | 0.973 | 0.891
G401 | 0.9413 | 0.92867 | 0.943 | 0.948 | 0.945 | 0.975 | 0.972 | 0.984 | 1.01 | 1
HS729 | 0.949 | 0.964 | 1.01 | 0.949 | 0.953 | 0.926 | 0.974 | 0.957 | 0.925 | 0.855
HT1080 | 1.03 | 1.03 | 1.066 | 1.04 | 1.03 | 1.03 | 1.06 | 1.06 | 1.07 | 1.06
KHOS-NP | 1.03 | 1.04 | 1.029 | 1.02 | 1.01 | 1.03 | 1.02 | 1.05 | 1.01 | 1.03
RD-ES | 0.957 | 0.9873 | 0.98 | 0.979 | 0.9688 | 0.98 | 1.009 | 1.005 | 1.01 | 1
SK-ES-1 | 0.955 | 0.964 | 0.963 | 0.967 | 0.996 | 0.989 | 1 | 1.02 | 1.06 | 1.04
SK-LMS-1 | 1.05 | 1.05 | 1.036 | 1.08 | 1.03 | 1.06 | 1.03 | 1.05 | 1.01 | 0.977
SW684 | 1.02 | 1.02 | 0.965 | 0.945 | 0.965 | 0.986 | 1.02 | 0.95 | 0.895 | 0.761
SW872 | 0.959 | 0.979 | 0.993 | 0.964 | 0.958 | 0.9735 | 0.966 | 0.9852 | 1 | 0.929
SW982 | 0.974 | 0.974 | 0.966 | 0.987 | 0.976 | 0.971 | 0.961 | 0.977 | 0.962 | 0.966
VA-ES-BJ | 0.961 | 0.962 | 0.974 | 0.984 | 0.945 | 0.964 | 0.981 | 0.985 | 0.978 | 0.95

Cn1cc(C2=C(c3cn(C4CCN(Cc5ccccn5)CC4)c4ccccc34)C(=O)NC2=O)c2ccccc21 [Enzastaurin]
Conditions | relative viability
A204, 0.00017 µM | 1.07
A204, 0.00051 µM | 1.13
A204, 0.00152 µM | 1.13
A204, 0.00457 µM | 1.12
A204, 0.01372 µM | 1.11
A204, 0.04115 µM | 1.07
A204, 0.1235 µM | 1.07
A204, 0.3704 µM | 1.1
A204, 1.111 µM | 1.09
A204, 3.333 µM | 1.08
A204, 10 µM | 0.906
G401, 0.00017 µM | 1.08
G401, 0.00051 µM | 1.1
G401, 0.00152 µM | 1.07
G401, 0.00457 µM | 1.04
G401, 0.01372 µM | 1.05
G401, 0.04115 µM | 1.05
G401, 0.1235 µM | 1.09
G401, 0.3704 µM | 1.06
G401, 1.111 µM | 1.13
G401, 3.333 µM | 1.21
G401, 10 µM | 1.31
HS729, 0.00017 µM | 1.06
HS729, 0.00051 µM | 1.09
HS729, 0.00152 µM | 1.07
HS729, 0.00457 µM | 1.07
HS729, 0.01372 µM | 1.05
HS729, 0.04115 µM | 1.05
HS729, 0.1235 µM | 1.01
HS729, 0.3704 µM | 1.02
HS729, 1.111 µM | 1.06
HS729, 3.333 µM | 1.13
HS729, 10 µM | 1.15
HT1080, 0.00017 µM | 1.14
HT1080, 0.00051 µM | 1.14
HT1080, 0.00152 µM | 1.11
HT1080, 0.00457 µM | 1.11
HT1080, 0.01372 µM | 1.12
HT1080, 0.04115 µM | 1.14
HT1080, 0.1235 µM | 1.14
HT1080, 0.3704 µM | 1.11
HT1080, 1.111 µM | 1.15
HT1080, 3.333 µM | 1.37
HT1080, 10 µM | 1.365
KHOS-NP, 0.00017 µM | 1.12
KHOS-NP, 0.00051 µM | 1.13
KHOS-NP, 0.00152 µM | 1.12
KHOS-NP, 0.00457 µM | 1.131
KHOS-NP, 0.01372 µM | 1.14
KHOS-NP, 0.04115 µM | 1.12
KHOS-NP, 0.1235 µM | 1.13
KHOS-NP, 0.3704 µM | 1.12
KHOS-NP, 1.111 µM | 1.11
KHOS-NP, 3.333 µM | 1.1
KHOS-NP, 10 µM | 1.1
RD-ES, 0.00017 µM | 0.992
RD-ES, 0.00051 µM | 0.997
RD-ES, 0.00152 µM | 1
RD-ES, 0.00457 µM | 1.01
RD-ES, 0.01372 µM | 0.996
RD-ES, 0.04115 µM | 1.01
RD-ES, 0.1235 µM | 1.01
RD-ES, 0.3704 µM | 0.981
RD-ES, 1.111 µM | 1.02
RD-ES, 3.333 µM | 1.02
RD-ES, 10 µM | 1.04
SK-ES-1, 0.00017 µM | 1.09
SK-ES-1, 0.00051 µM | 1.06
SK-ES-1, 0.00152 µM | 1.11
SK-ES-1, 0.00457 µM | 1.08
SK-ES-1, 0.01372 µM | 1.11
SK-ES-1, 0.04115 µM | 1.08
SK-ES-1, 0.1235 µM | 1.08
SK-ES-1, 0.3704 µM | 1.04
SK-ES-1, 1.111 µM | 1.11
SK-ES-1, 3.333 µM | 1.1
SK-ES-1, 10 µM | 0.914
SK-LMS-1, 0.00017 µM | 1.08
SK-LMS-1, 0.00051 µM | 1.07
SK-LMS-1, 0.00152 µM | 1.07
SK-LMS-1, 0.00457 µM | 1.04
SK-LMS-1, 0.01372 µM | 1.047
SK-LMS-1, 0.04115 µM | 1.071
SK-LMS-1, 0.1235 µM | 1.05
SK-LMS-1, 0.3704 µM | 1.06
SK-LMS-1, 1.111 µM | 0.9757
SK-LMS-1, 3.333 µM | 0.841
SK-LMS-1, 10 µM | 0.746
SW684, 0.00017 µM | 1.17
SW684, 0.00051 µM | 1.18
SW684, 0.00152 µM | 1.22
SW684, 0.00457 µM | 1.18
SW684, 0.01372 µM | 1.2
SW684, 0.04115 µM | 1.17
SW684, 0.1235 µM | 1.17
SW684, 0.3704 µM | 1.18
SW684, 1.111 µM | 1.11
SW684, 3.333 µM | 0.956
SW684, 10 µM | 0.944
SW872, 0.00017 µM | 1.07
SW872, 0.00051 µM | 1.09
SW872, 0.00152 µM | 1.08
SW872, 0.00457 µM | 1.06
SW872, 0.01372 µM | 1.01
SW872, 0.04115 µM | 1.08
SW872, 0.1235 µM | 1.04
SW872, 0.3704 µM | 1.09
SW872, 1.111 µM | 1.05
SW872, 3.333 µM | 1.06
SW872, 10 µM | 0.96
SW982, 0.00017 µM | 1.06
SW982, 0.00051 µM | 1.06
SW982, 0.00152 µM | 1.08
SW982, 0.00457 µM | 1.08
SW982, 0.01372 µM | 1.08
SW982, 0.04115 µM | 1.069
SW982, 0.1235 µM | 1.05
SW982, 0.3704 µM | 1.06
SW982, 1.111 µM | 1.012
SW982, 3.333 µM | 0.903
SW982, 10 µM | 0.679
VA-ES-BJ, 0.00017 µM | 1.08
VA-ES-BJ, 0.00051 µM | 1.12
VA-ES-BJ, 0.00152 µM | 1.11
VA-ES-BJ, 0.00457 µM | 1.09
VA-ES-BJ, 0.01372 µM | 1.07
VA-ES-BJ, 0.04115 µM | 1.06
VA-ES-BJ, 0.1235 µM | 1.06
VA-ES-BJ, 0.3704 µM | 1.08
VA-ES-BJ, 1.111 µM | 1.11
VA-ES-BJ, 3.333 µM | 1.19
VA-ES-BJ, 10 µM | 1.21
